Measurements from patent US9072707B2, “Use of C-terminal domain of IGFBP-5 comprising heparin-binding domain as an angiogenesis inhibitor” (RESEARCH & BUSINESS FOUNDATION SUNGKYUNKWAN UNIVERSITY, priority 2012, dated 2015).

What was measured:
VEGF = assay: RT-PCR analysis of VEGF gene expression in 2774 ovarian cancer cell line; type: cell-based
Experimental: (§1) A plasmid (pSecTaq2/Hygro A, Invitrogen) (2 μg/dish (100 mm dish)) that expresses the C-terminal domain (SEQ ID NO: 1), L-domain (SEQ ID NO: 2) and N-terminal domain (SEQ ID NO: 3) of IGFBP-5 was transfected into the 2774 ovarian cancer cell line using Lipofectamine 2000 (Invitrogen). The transfection was performed according to the method provided by Invitrogen.
(§2) At 24 hours after transfection, viable colonies were collected in DMEM (+10% FBS+penicillin and hygromycin) containing hygromycin (500 μg/ml), and then positive colonies were selected by a Western blot method using Myc antibody.
(§3) The […] cell line was treated overnight with various concentrations or 60 μg/ml of the peptides synthesized in Example 4, after which the cell line was additionally treated with fresh peptides for 7 hours. The cell line was treated for a total of 24 hours. Then, the cells were lysed with Trizol (Invitrogen), and RNA was isolated from the cells. cDNA was synthesized from the isolated […] using oligo dT and superscriptase III (Invitrogen), and then subjected to RT-PCR.
(§4) However, the PCR reaction using TNF-a primers was performed for 35 cycles at an annealing temperature of 57° C.

HUVEC [1] = assay: Migration (scratch) assay; type: cell-based, human; settings: 60 μg/ml peptide, 36 h pretreatment, overnight, FIG. 6b
Experimental: In order to examine the influence of each domain peptide of IGFBP-5 on the migration of HUVEC cells, HUVEC cells were seeded onto a 12-well plate at a density of 1×10^5 cells/well, and then treated with 60 μg/ml of each of the peptides for 36 hours. Specifically, the cells were treated with each of the peptides for 7 hours, and then treated overnight with a fresh peptide.
The plate was scratched with a 200-μl micropipette tip, and treated overnight with 60 μg/ml of a fresh peptide, after which the migration of the cells was observed. For this purpose, the cells were photographed under a microscope at 0 hour and the overnight time point. In addition, for a control group, cells were treated with PBS.

2774-GFP cell line = assay: Ovarian cancer animal model, intraperitoneal 2774-GFP cells; type: in vivo, nude mouse; settings: 30 mg/kg intraperitoneally 8 times at intervals of 2-3 days, FIG. 7
Experimental: Each of 5-week-old nude mouse was intraperitoneally injected with 5×10^6 2774 cells that express GFP.
In this experiment, 8 mice were injected with the BP5-C peptide, and for a control group, 7 mice were injected with PBS.

TNF-α = assay: RT-PCR analysis of TNF-alpha gene expression in 2774 ovarian cancer cell line; type: cell-based
Experimental: as §1, §2, §3, §4

HUVEC [2] = assay: Tube formation assay on Matrigel; type: cell-based, human; settings: 60 μg/ml peptide, 24 h pretreatment, 6 h on Matrigel; FIG. 6a
Experimental: In order to examine the influence of each domain peptide of IGFBP-5 on the tube formation of HUVEC cells, HUVEC cells were plated onto a 6-well plate at a density of 1×10^5 cells/well, and then treated with 60 μg/ml of each of the peptides for 24 hours.
Before a tube formation assay, growth factor-reduced Matrigel (BD Bioscience) diluted to 1:2 with PBS was added to a 24-well plate in an amount of 300 μl/well, and then solidified at 37° C. for 1 hour. The HUVEC cells treated with each of the peptides for 24 hours were trypsinized, suspended in 300 μl of EGM medium (diluted to 1:3 with EBM medium) and treated with 60 μg/ml of a fresh peptide, and then the cells were incubated on the prepared Matrigel for 6 hours.

IL-6 = assay: RT-PCR analysis of IL-6 gene expression in 2774 ovarian cancer cell line; type: cell-based
Experimental: as §1, §2, §3, §4

[3] = tested on: 2774 ovarian cancer cell line; assay: Subcutaneous tumor growth of 2774 cell lines expressing IGFBP-5 truncation mutants; type: in vivo, nude mouse; settings: nude mice injected subcutaneously with 2774 cells expressing the domain, compared to Vec/2774; FIGS. 2a, 2b
Experimental: A 5-week-old nude mouse subcutaneously injected with 1×10^6 cells that express the truncation mutant of IGFBP-5, and then the tumor volume of the mice was measured at intervals of 3-4 days. In this experiment, two mice were used for each of the cell lines, and each of the cell lines was injected into two points of each mouse. This experiment was repeated three times.

[4] = 2774 cells treated with 60 μg/ml of each peptide, FIG. 5A
[5] = 2774 cells treated with peptide at 30, 60 and 100 μg/ml, FIG. 3A
[6] = 2774 cell line stably expressing the domain, FIG. 1B

Molecule	expression of VEGF gene (VEGF; [4])	expression of VEGF gene (VEGF; [5])	migration of HUVEC (HUVEC [1])	tumor volume of collected tumors (2774-GFP cell line; compared to animals injected with PBS)	tumor growth (2774-GFP cell line; compared to control group (PBS))	expression of TNF-α gene (TNF-α; [4])	expression of TNF-α gene (TNF-α; [5])	tube formation of HUVEC (HUVEC [2])	expression of IL-6 gene (IL-6; [4])	expression of IL-6 gene (IL-6; [5])	expression of VEGF gene (VEGF; [6])	growth of cancer (tumor volume) [3]	expression of TNF-a gene (TNF-α; [6])	expression of IL-6 gene (IL-6; [6])
BP5-C: amino acids 201-218 of IGFBP-5, RKGFYKRKQCKPSRGRKR (SEQ ID NO: 4)	inhibited	inhibited	inhibited	significantly reduced	significantly inhibited	inhibited	inhibited	inhibited	inhibited	inhibited				
BP2-HBD: heparin-binding domain derived from IGFBP-2, amino acids 171-188, KHHLGLEEPKKLRPPPAR (SEQ ID NO: 6) [reference compound]	no effect		did not inhibit			no effect		no influence	no effect					
BP2-C: C-terminal domain peptide of IGFBP-2 including IGF-1-binding domain, amino acids 228-245, KHGLYNLKQCKMSLNGQR (SEQ ID NO: 7) [reference compound]	no effect		did not inhibit			no effect		no influence	no effect					
BP5-mut: IGFBP-5 201-218 with G203A and Q209A mutations, RKAFYKRKACKPSRGRKR (SEQ ID NO: 5)	inhibited		inhibited			inhibited		inhibited	inhibited					
C-terminal domain: domain consisting of amino acids 169-252 of IGFBP-5 (SEQ ID NO: 1), stably expressed in 2774 cells (C/2774) (protein) QGPCRRHMEASLQELKASPRMVPRAVYLPNCDRKGFYKRKQCKPSRGRKRGICWCVDKYGMKLPGMEYVDGDFQCHTFDSSNVE											significantly inhibited	significantly inhibited	significantly inhibited	significantly inhibited
